Measured values as given in patent publication US20050136006A1, “Quantitative assay of the angiogenic and antiangiogenic activity of a test molecule” (Government of the U.S.A.,represented by the Secretary, …, priority 2002, published 2005).
Values joined by “and” are separate entries in the source; they are usually repeats but may differ in a detail not shown here. Equal entries are not always repeated.

Experiments:
[1] = test system: chorioallantoic membrane tissue of an embryonated chicken egg; assay: Modified CAM assay, fluorescent vascular density (FVD) by laser confocal microscopy after FITC-Dextran injection; format: in vivo; set-up: FVD Group Mean / FVD: scale not given here; conditions: for FVD: individual eggs
Protocol: Eighteen 10-day-old embryonated chicken eggs were obtained. A window was made in the shell of each egg. The chorioallantoic membranes were dropped to allow placement of a filter paper disc saturated with either basic fibroblast growth factor (bFGF) (1 μg/ml), as an angiogenic stimulator, or with a control solution (Clonetics EBM-2 media, Bio-Whittaker, Walersville, Md.). Twenty-four hours were allowed to elapse and a vessel was cannulated in each egg. Embryos that had received a filter disc saturated with bFGF then received a systemic injection of either Fumagillin (5 μg/egg, Calbiochem, San Diego, Calif.) in 0.1% dimethyl sulfoxide (DMSO) (Group A, n=3), or an injection of 0.1% DMSO carrier alone (Group B, n=5). Fumagillin is an organic compound with established antiangiogenic effects (see, e.g., Ingber et al., Nature, 348:555-557 (1990)). Embryos that had received a filter disc saturated with the control molecule received 0. 1% DMSO carrier injected systemically (Group C, n=10).
Forty-eight hours were allowed to elapse, and all eggs then received a systemic injection of fluorescein isothiocyanate (FITC)-Dextran (1 mg/ml), which was allowed to circulate for 30 minutes. Filter discs and associated CAM tissue (i.e., the region of interest) were excised from the egg and preserved in 10% formalin. The filter disc and region of interest were then laid out on a glass microscope slide and viewed using a laser confocal microscope (LSM 510 Laser Scanning Microscope, Carl Zeiss, Inc., Thronwood, N.Y.). The filter disc and region of interest were stimulated with an argon laser emitting at a wavelength of 488 nm. The resultant excitation was read using fluorescence filters at wavelengths of 505 nm and greater. The image was captured using LSM 5 Pascal software (Carl Zeiss, Inc.), through a microscope objective of 1.25×. The capture image data was formatted as 1024 pixels wide by 1024 pixels long, resulting in an overall image of 1,048,576 pixels, each with a brightness measured on a scale from 0 to 255. Multiple cross-sectional images were taken along a three-dimensional z-axis at 200 micron intervals through each filter disc and region of interest from each egg. Each filter disc and region of interest was thereby determined to have a fluorescent vascular density reflective of the density of vasculature of the CAM tissue associated with the filter disc. One filter disc in Group C was eliminated from analysis owing to gross extravasation of fluorescein, rendering it unreadable (represented by “-” in Table 1).

[2] = test system: filter discs and associated CAM tissue; assay: CAM assay scored from light microscopic photographs by blinded observers; format: in vivo, chicken; set-up: scale not given here; conditions: for Score: individual discs
Protocol: However, instead of using laser confocal microscopy to determine an FVD value for a test region of interest, the filter discs and associated CAM tissue were photographed under light microscopy. The light microscopic photographs were evaluated independently by three blinded observers, all experts in the study of angiogenesis. […] If the blinded observer felt that a disc had too much hemorrhage or artifact to make an accurate assessment of angiogenesis, it was eliminated from that observer's assessment (represented by a “-” in Tables 2-4).

[3] = test system: endothelial cell proliferation in the CAM; assay: CAM-XTT cell proliferation assay, spectrophotometrical absorbance; format: in vivo, chicken; conditions: FGF 2.0 μg/mL disc; systemic 100 μM Fumagillin or 3 mg/mL LM609; relative to FGF + 0.1% DMSO carrier
Protocol: Ten 10-day old eggs were divided into four groups and prepared as in Example 1. The eggs received (A) filter disks saturated with a vehicle solution (0.1% bovine serum albumin (BSA)/phosphate-buffered saline (PBS)) and systemic injection of a carrier solution (0.1% DMSO), (B) filter disks saturated with a stimulator solution (2.0 μg/mL FGF) and systemic injection of carrier solution (0.1% DMSO), (C) filter disks saturated with a stimulator solution (2.0 μg/mL FGF) and systemic injection of an inhibitor (100 μM Fumagillin), or (D) filter disks saturated with a stimulator solution (2.0 μg/mL FGF) and systemic injection of an inhibitor (3 mg/mL LM609). […]
XTT is a tetrazolium salt, which is reduced within the mitochondria of metabolically active cells to form a colored formazan dye. The amount of formazan dye produced is quantitatively measured by spectrophotometrical absorbance (e.g., by an ELISA plate reader) at 450-500 nm. […]
5 mL of XTT labeling reagent and 0.1 mL electron coupling reagent were mixed together and 30 μL of the mixture was applied onto the CAM disk via pipette. […] At Day 13, the disks were harvested for light photomicroscopy and the mean spectrophotometrical absorbance at 450 nm was measured (reference wavelength 620 nm (Titertek Multiskan Ascent Plate Reader)).

[4] = Table 2, one blinded observer, Group B: bFGF disc + 0.1% DMSO carrier
[5] = Table 3, one blinded observer, Group B: bFGF disc + 0.1% DMSO carrier
[6] = Table 4, one blinded observer, Group B: bFGF disc + 0.1% DMSO carrier
[7] = Table 2, one blinded observer, Group A: bFGF disc + Fumagillin 5 μg/egg
[8] = Table 3, one blinded observer, Group A: bFGF disc + Fumagillin 5 μg/egg
[9] = Table 4, one blinded observer, Group A: bFGF disc + Fumagillin 5 μg/egg

For basic fibroblast growth factor [bFGF], the FVD ([1]; Treatment Group B: bFGF (1 μg/ml) filter disc, systemic 0.1% DMSO carrier alone) was 2.5401 and 3.7715 and 1.9767 and 0.6873 and 2.6344, the “FVD Group Mean” value ([1]; Treatment Group B: bFGF (1 μg/ml) filter disc, systemic 0.1% DMSO carrier alone, n=5) was 2.322 and the “Score Group Mean” value [2, 4] was 1.8. The Score [2, 4] was 2 (2×) and 3 and 1 (2×), the “Score Group Mean” value [2, 5] was 2.4 and the Score [2, 5] was 2 and 3 (3×) and 1. The “Score Group Mean” value [2, 6] was 2.2 and the Score [2, 6] was 2 (2×) and 3 (2×) and 1.

`CO[C@@H]1[C@H](OC(=O)/C=C/C=C/C=C/C=C/C(=O)O)CC[C@]2(CO2)[C@H]1[C@@]1(C)O[C@@H]1CC=C(C)C` [Fumagillin] was tested, and the FVD ([1]; Treatment Group A: bFGF (1 μg/ml) filter disc, systemic Fumagillin 5 μg/egg in 0.1% DMSO, 48 h) was 0.0673 and 0.0533 and 1.5029, the “FVD Group Mean” value ([1]; Treatment Group A: bFGF (1 μg/ml) filter disc, systemic Fumagillin 5 μg/egg in 0.1% DMSO, n=3) was 0.5412 and the “effect on fluorescent vascular density of bFGF-stimulated specimens” value ([1]; systemic injection, on average, relative to bFGF stimulation + control molecule (Group B)) was “reduce the fluorescent vascular density”. For the same molecule, the “effect on spectrophotometrical absorbance (450 nm) of FGF-stimulated specimens” value [3] was “reduced the spectrophotometrical absorbance”, the “Score Group Mean” value [2, 7] was 2 and the Score [2, 7] was 2. For the same molecule, the “Score Group Mean” value [2, 8] was 2.7, the Score [2, 8] was 2 and 3 (2×) and the “Score Group Mean” value [2, 9] was 2. The Score [2, 9] was 3 and 2 and 1.
